# Measurements: paper PMC5218480 (PLoS ONE, 2017)
# System: MV-4-11 cells
# Experiment: Gene expression microarray analysis (Affymetrix PrimeView) and GSEA
# Assay type: cell-based, human
# Set-up: RFU PODN (11730768_x_at) / Fold change /veh PODN (11730768_x_at) / RFU LINC00158 (11744669_a_at) / Fold change /veh LINC00158 (11744669_a_at) / RFU DUSP10 (11751237_a_at) / Fold change /veh DUSP10 (11751237_a_at) / RFU ID3 (11757404_x_at) / Fold change /veh ID3 (11757404_x_at) / RFU PLEKHG5 (11737974_s_at) / Fold change /veh PLEKHG5 (11737974_s_at) / RFU LRRC4B (11730491_at) / Fold change /veh LRRC4B (11730491_at) / RFU GIMAP4 (11747438_a_at) / Fold change /veh GIMAP4 (11747438_a_at) / RFU KRT8 (11758183_x_at) / Fold change /veh KRT8 (11758183_x_at) / RFU CNN1 (11734310_a_at) / Fold change /veh CNN1 (11734310_a_at) / RFU VPS37D (11726825_at) / Fold change /veh VPS37D (11726825_at) / RFU C10orf10 (11716522_x_at) / Fold change /veh C10orf10 (11716522_x_at) / RFU KIR2DL2 /// KIR2DL4 /// KIR2DL5A /// KIR2DL5B /// KIR2DS1 /// KIR2DS2 /// KIR2DS3 /// KIR2DS4 /// KIR3DL3 /// KIR3DL3 /// KIR3DS1 (11738374_at) / Fold change /veh KIR2DL2 /// KIR2DL4 /// KIR2DL5A /// KIR2DL5B /// KIR2DS1 /// KIR2DS2 /// KIR2DS3 /// KIR2DS4 /// KIR3DL3 /// KIR3DL3 /// KIR3DS1 (11738374_at) / RFU C1QL1 (11718748_at) / Fold change /veh C1QL1 (11718748_at) / RFU TMPRSS4 (11747572_a_at) / Fold change /veh TMPRSS4 (11747572_a_at) / RFU HAMP (11756126_x_at) / Fold change /veh HAMP (11756126_x_at) / RFU RNFT2 (11725882_a_at) / Fold change /veh RNFT2 (11725882_a_at) / RFU NR4A2 (11747474_a_at) / Fold change /veh NR4A2 (11747474_a_at) / RFU ABCC12 (11746883_a_at) / Fold change /veh ABCC12 (11746883_a_at) / RFU TMEM136 (11760407_x_at) / Fold change /veh TMEM136 (11760407_x_at) / RFU CLDN22 /// WWC2 (11732394_at) / Fold change /veh CLDN22 /// WWC2 (11732394_at) / RFU HLA-DPB1 (11760878_x_at) / Fold change /veh HLA-DPB1 (11760878_x_at) / RFU SPINT1 (11716480_a_at) / Fold change /veh SPINT1 (11716480_a_at) / RFU GAP43 (11754022_s_at) / Fold change /veh GAP43 (11754022_s_at) / RFU A4GNT (11735810_at) / Fold change /veh A4GNT (11735810_at) / RFU PRB3 (11715151_x_at) / Fold change /veh PRB3 (11715151_x_at) / RFU TUBB4B (11761932_at) / Fold change /veh TUBB4B (11761932_at) / RFU CAPN14 (11732068_a_at) / Fold change /veh CAPN14 (11732068_a_at) / RFU TMCC2 (11721928_a_at) / Fold change /veh TMCC2 (11721928_a_at) / RFU IRGQ (11745062_a_at) / Fold change /veh IRGQ (11745062_a_at) / RFU FAM174B (11720279_a_at) / Fold change /veh FAM174B (11720279_a_at) / RFU TMPRSS4 (11748680_a_at) / Fold change /veh TMPRSS4 (11748680_a_at) / RFU FAM212B (11763350_a_at) / Fold change /veh FAM212B (11763350_a_at) / RFU PLEKHG5 (11743358_a_at) / Fold change /veh PLEKHG5 (11743358_a_at) / RFU ZSCAN30 (11745921_a_at) / Fold change /veh ZSCAN30 (11745921_a_at) / RFU CMKLR1 (11741424_a_at) / Fold change /veh CMKLR1 (11741424_a_at) / RFU LOC101060620 /// MAPK8IP1 (11723275_at) / Fold change /veh LOC101060620 /// MAPK8IP1 (11723275_at) / RFU SPTSSB (11747773_x_at) / Fold change /veh SPTSSB (11747773_x_at) / RFU PRSS12 (11739890_at) / Fold change /veh PRSS12 (11739890_at) / RFU BIN1 (11741810_x_at) / Fold change /veh BIN1 (11741810_x_at) / RFU WNT11 (11732464_a_at) / Fold change /veh WNT11 (11732464_a_at) / RFU C10orf10 (11716521_a_at) / Fold change /veh C10orf10 (11716521_a_at) / RFU C5orf56 (11738089_at) / Fold change /veh C5orf56 (11738089_at) / RFU CYB561 (11721691_x_at) / Fold change /veh CYB561 (11721691_x_at) / RFU ANKRD19P (11752326_a_at) / Fold change /veh ANKRD19P (11752326_a_at) / RFU OR2T12 /// OR2T33 /// OR2T8 (11738714_s_at) / Fold change /veh OR2T12 /// OR2T33 /// OR2T8 (11738714_s_at) / RFU VCAN (11748164_a_at) / Fold change /veh VCAN (11748164_a_at) / RFU JSRP1 (11732532_at) / Fold change /veh JSRP1 (11732532_at) / RFU KRTAP10-11 (11738290_x_at) / Fold change /veh KRTAP10-11 (11738290_x_at) / RFU MYO3A (11730013_a_at) / Fold change /veh MYO3A (11730013_a_at) / RFU EBF3 (11725865_a_at) / Fold change /veh EBF3 (11725865_a_at) / RFU CAMK2N1 (11719241_x_at) / Fold change /veh CAMK2N1 (11719241_x_at) / RFU C5orf56 (11738088_a_at) / Fold change /veh C5orf56 (11738088_a_at) / RFU OLFML3 (11715873_a_at) / Fold change /veh OLFML3 (11715873_a_at) / RFU LOC100653217 /// NTM (11731650_a_at) / Fold change /veh LOC100653217 /// NTM (11731650_a_at) / RFU MAPK11 (11762145_a_at) / Fold change /veh MAPK11 (11762145_a_at) / RFU FIZ1 (11724087_x_at) / Fold change /veh FIZ1 (11724087_x_at) / RFU OASL (11726364_x_at) / Fold change /veh OASL (11726364_x_at) / RFU SOX15 (11748057_x_at) / Fold change /veh SOX15 (11748057_x_at) / RFU CD79A (11719716_a_at) / Fold change /veh CD79A (11719716_a_at) / RFU HIST1H1D (11736915_at) / Fold change /veh HIST1H1D (11736915_at) / RFU CASKIN2 (11723855_a_at) / Fold change /veh CASKIN2 (11723855_a_at) / RFU LOC730098 (11760151_x_at) / Fold change /veh LOC730098 (11760151_x_at) / RFU OR4N2 (11742367_at) / Fold change /veh OR4N2 (11742367_at) / RFU PRRT2 (11749266_a_at) / Fold change /veh PRRT2 (11749266_a_at) / RFU SNX32 (11753110_a_at) / Fold change /veh SNX32 (11753110_a_at) / RFU CDHR5 (11726645_a_at) / Fold change /veh CDHR5 (11726645_a_at) / RFU RCAN1 (11760418_a_at) / Fold change /veh RCAN1 (11760418_a_at) / RFU FAM167A (11723789_a_at) / Fold change /veh FAM167A (11723789_a_at) / RFU FAM26E (11764081_at) / Fold change /veh FAM26E (11764081_at) / RFU ISYNA1 (11749810_s_at) / Fold change /veh ISYNA1 (11749810_s_at) / RFU ACY1 (11761880_at) / Fold change /veh ACY1 (11761880_at) / RFU 11764098_at / Fold change /veh 11764098_at / RFU SAMD14 (11745864_x_at) / Fold change /veh SAMD14 (11745864_x_at) / RFU NPB (11741838_a_at) / Fold change /veh NPB (11741838_a_at) / RFU TMPRSS6 (11731388_a_at) / Fold change /veh TMPRSS6 (11731388_a_at) / RFU KRTAP10-2 (11738614_at) / Fold change /veh KRTAP10-2 (11738614_at) / RFU ARHGAP8 /// PRR5-ARHGAP8 (11727945_x_at) / Fold change /veh ARHGAP8 /// PRR5-ARHGAP8 (11727945_x_at) / RFU KRTAP5-7 /// NADSYN1 (11734609_at) / Fold change /veh KRTAP5-7 /// NADSYN1 (11734609_at) / RFU RASL12 (11751679_a_at) / Fold change /veh RASL12 (11751679_a_at) / RFU CDKN2B (11736163_a_at) / Fold change /veh CDKN2B (11736163_a_at) / RFU PRF1 (11729649_at) / Fold change /veh PRF1 (11729649_at) / RFU, ZNF638 /// ZNF638-IT1 / Fold change vs veh, ZNF638 /// ZNF638-IT1 / RFU, PANK3 / Fold change vs veh, PANK3 / RFU, SH3YL1 / Fold change vs veh, SH3YL1 / RFU, ZEB2 / Fold change vs veh, ZEB2 / RFU, NRIP1 / Fold change vs veh, NRIP1 / RFU, PTTG1IP / Fold change vs veh, PTTG1IP / RFU, CAPN2 / Fold change vs veh, CAPN2 / RFU, MED14 / Fold change vs veh, MED14 / RFU, SNORA58 / Fold change vs veh, SNORA58 / RFU, C1orf63 / Fold change vs veh, C1orf63 / RFU, LRRFIP1 / Fold change vs veh, LRRFIP1 / RFU, NDUFAF7 / Fold change vs veh, NDUFAF7 / RFU, SLC12A2 / Fold change vs veh, SLC12A2 / RFU, IBTK / Fold change vs veh, IBTK / RFU, ESF1 / Fold change vs veh, ESF1 / Fold change vs veh, TMEM50B / RFU, TAOK1 / Fold change vs veh, TAOK1 / RFU, ACBD3 / Fold change vs veh, ACBD3 / RFU, TMA16 / Fold change vs veh, TMA16 / RFU, RWDD3 / Fold change vs veh, RWDD3 / RFU, BCAT1 / Fold change vs veh, BCAT1 / RFU, EDEM3 / Fold change vs veh, EDEM3 / RFU, TMEM33 / Fold change vs veh, TMEM33 / RFU, WDR75 / Fold change vs veh, WDR75 / RFU, AHCTF1 / Fold change vs veh, AHCTF1 / RFU, TFRC / Fold change vs veh, TFRC / RFU, ZDHHC17 / Fold change vs veh, ZDHHC17 / RFU, NOM1 / Fold change vs veh, NOM1 / RFU, ARL8B / Fold change vs veh, ARL8B / RFU, ZBTB11 / Fold change vs veh, ZBTB11 / RFU, TAMM41 / Fold change vs veh, TAMM41 / RFU, KIAA1704 /// LOC100996395 / Fold change vs veh, KIAA1704 /// LOC100996395 / RFU, ING1 / Fold change vs veh, ING1 / RFU, TRMT61B / Fold change vs veh, TRMT61B / RFU, FUBP3 / Fold change vs veh, FUBP3 / RFU, TP53 / Fold change vs veh, TP53 / RFU, TNKS2 / Fold change vs veh, TNKS2 / RFU, ZFP14 / Fold change vs veh, ZFP14 / RFU, ACTR2 / Fold change vs veh, ACTR2 / RFU, PPP3R1 / Fold change vs veh, PPP3R1 / RFU, PIK3R1 / Fold change vs veh, PIK3R1 / RFU, HNRNPA1 / Fold change vs veh, HNRNPA1 / RFU, RNF170 / Fold change vs veh, RNF170 / RFU, ZNF28 / Fold change vs veh, ZNF28 / RFU, RNGTT / Fold change vs veh, RNGTT / RFU, OGT / Fold change vs veh, OGT / RFU, BRD1 / Fold change vs veh, BRD1 / RFU, MARS / Fold change vs veh, MARS / RFU, ZNF655 / Fold change vs veh, ZNF655 / RFU, FAHD1 / Fold change vs veh, FAHD1 / RFU, BDP1 / Fold change vs veh, BDP1 / RFU, LRRCC1 / Fold change vs veh, LRRCC1 / RFU, ARID1A / Fold change vs veh, ARID1A / RFU, ZNF146 / Fold change vs veh, ZNF146 / RFU, ZNF330 / Fold change vs veh, ZNF330 / RFU, GPN3 / Fold change vs veh, GPN3 / RFU, C9orf123 / Fold change vs veh, C9orf123 / RFU, N4BP2L2 / Fold change vs veh, N4BP2L2 / RFU, ARFIP1 / Fold change vs veh, ARFIP1 / RFU, FAM179B / Fold change vs veh, FAM179B / RFU, BCL10 / Fold change vs veh, BCL10 / RFU, UHRF1BP1L / Fold change vs veh, UHRF1BP1L / RFU, BET1 / Fold change vs veh, BET1 / RFU, CNOT2 / Fold change vs veh, CNOT2 / RFU, ZNF268 / Fold change vs veh, ZNF268 / Fold change vs veh, ZNF507 / RFU, DGCR2 / Fold change vs veh, DGCR2 / RFU, WDSUB1 / Fold change vs veh, WDSUB1 / Fold change vs veh, HSP90B1 /// MIR3652 / RFU, ADSS / Fold change vs veh, ADSS / RFU, GK / Fold change vs veh, GK / RFU, ZNF148 / Fold change vs veh, ZNF148 / RFU, TAF9 / Fold change vs veh, TAF9 / RFU, SLC1A5 / Fold change vs veh, SLC1A5 / RFU, SLMO2 / Fold change vs veh, SLMO2 / RFU, ABCC4 / Fold change vs veh, ABCC4 / RFU, LOC101060439 /// RAP1B / Fold change vs veh, LOC101060439 /// RAP1B / RFU, RFX7 / Fold change vs veh, RFX7 / RFU, GTPBP10 / Fold change vs veh, GTPBP10 / RFU, CNEP1R1 / Fold change vs veh, CNEP1R1 / RFU, BIVM-ERCC5 /// ERCC5 / Fold change vs veh, BIVM-ERCC5 /// ERCC5 / RFU, ILF3 / Fold change vs veh, ILF3 / RFU 11762660_at / Fold change /veh 11762660_at / RFU VCAN (11757783_s_at) / Fold change /veh VCAN (11757783_s_at) / RFU DDX43 (11728927_at) / Fold change /veh DDX43 (11728927_at) / RFU KRT8 (11758188_x_at) / Fold change /veh KRT8 (11758188_x_at) / RFU NKD1 (11759106_at) / Fold change /veh NKD1 (11759106_at) / RFU SRD5A1 (11742802_a_at) / Fold change /veh SRD5A1 (11742802_a_at) / RFU TPSAB1 /// TPSB2 (11721975_s_at) / Fold change /veh TPSAB1 /// TPSB2 (11721975_s_at) / RFU GSTM3 (11746129_a_at) / Fold change /veh GSTM3 (11746129_a_at) / RFU IL23R (11737362_x_at) / Fold change /veh IL23R (11737362_x_at) / RFU TMEM51 (11727254_a_at) / Fold change /veh TMEM51 (11727254_a_at) / RFU PIWIL2 (11732686_x_at) / Fold change /veh PIWIL2 (11732686_x_at) / RFU ORM1 (11744905_x_at) / Fold change /veh ORM1 (11744905_x_at) / RFU CCDC152 (11743942_at) / Fold change /veh CCDC152 (11743942_at) / RFU ECM1 (11717891_a_at) / Fold change /veh ECM1 (11717891_a_at) / RFU IL23R (11748794_a_at) / Fold change /veh IL23R (11748794_a_at) / RFU TNFAIP8L3 (11732012_x_at) / Fold change /veh TNFAIP8L3 (11732012_x_at) / RFU MBOAT4 (11741988_at) / Fold change /veh MBOAT4 (11741988_at) / RFU 11764193_at / Fold change /veh 11764193_at / RFU TMEM53 (11763286_at) / Fold change /veh TMEM53 (11763286_at) / RFU MAGEB2 (11727129_at) / Fold change /veh MAGEB2 (11727129_at) / RFU TMEM200A (11744735_a_at) / Fold change /veh TMEM200A (11744735_a_at) / RFU CCDC152 (11751479_a_at) / Fold change /veh CCDC152 (11751479_a_at) / RFU FAM211A (11726209_a_at) / Fold change /veh FAM211A (11726209_a_at) / RFU RGS16 (11746705_a_at) / Fold change /veh RGS16 (11746705_a_at) / RFU VCAN (11755009_s_at) / Fold change /veh VCAN (11755009_s_at) / RFU RHOB (11743442_s_at) / Fold change /veh RHOB (11743442_s_at) / RFU RGS16 (11720943_a_at) / Fold change /veh RGS16 (11720943_a_at) / RFU RGS16 (11720944_at) / Fold change /veh RGS16 (11720944_at) / RFU, VPS4B / Fold change vs veh, VPS4B / RFU, CREB1 / Fold change vs veh, CREB1 / RFU, DNAJC13 / Fold change vs veh, DNAJC13 / RFU, GNAQ / Fold change vs veh, GNAQ / RFU, CDK5R1 / Fold change vs veh, CDK5R1 / RFU, ZRANB3 / Fold change vs veh, ZRANB3 / RFU, CUL4A / Fold change vs veh, CUL4A / RFU, CCNY / Fold change vs veh, CCNY / RFU, UFL1 / Fold change vs veh, UFL1 / RFU, COG3 / Fold change vs veh, COG3 / RFU, DIAPH2 / Fold change vs veh, DIAPH2 / RFU, SKA2 / Fold change vs veh, SKA2 / RFU, AFF3 / Fold change vs veh, AFF3 / RFU, LMF1 / Fold change vs veh, LMF1 / RFU, IPO11 / Fold change vs veh, IPO11 / RFU, DFFB / Fold change vs veh, DFFB / RFU, FOXP1 / Fold change vs veh, FOXP1 / RFU, CARD8 / Fold change vs veh, CARD8 / RFU, STRN3 / Fold change vs veh, STRN3 / RFU, ADK / Fold change vs veh, ADK / RFU, RASSF2 / Fold change vs veh, RASSF2 / RFU, WIPF1 / Fold change vs veh, WIPF1 / RFU, LARP1B / Fold change vs veh, LARP1B / RFU, RASA1 / Fold change vs veh, RASA1 / RFU, RB1 / Fold change vs veh, RB1 / RFU, PPFIA1 / Fold change vs veh, PPFIA1 / RFU, MAT2A / Fold change vs veh, MAT2A / RFU, CCT5 / Fold change vs veh, CCT5 / RFU, WDR92 / Fold change vs veh, WDR92 / RFU, CUX1 / Fold change vs veh, CUX1 / RFU, TTC7A / Fold change vs veh, TTC7A / RFU, TMEM135 / Fold change vs veh, TMEM135 / RFU, DEPTOR / Fold change vs veh, DEPTOR / RFU, CPM / Fold change vs veh, CPM / RFU, DNAJB6 / Fold change vs veh, DNAJB6 / RFU, CACNA2D3 / Fold change vs veh, CACNA2D3 / RFU, DTX4 / Fold change vs veh, DTX4 / RFU, TFCP2 / Fold change vs veh, TFCP2 / RFU, GMCL1 /// GMCL1P1 / Fold change vs veh, GMCL1 /// GMCL1P1 / RFU, AEBP2 / Fold change vs veh, AEBP2 / RFU, SNHG1 /// SNORD22 /// SNORD25 /// SNORD26 /// SNORD27 /// SNORD28 /// SNORD29 /// SNORD31 / Fold change vs veh, SNHG1 /// SNORD22 /// SNORD25 /// SNORD26 /// SNORD27 /// SNORD28 /// SNORD29 /// SNORD31 / Fold change (Aza/veh), C12orf56 (ProbeSet 11735607_a_at) / Fold change (ACY-1035/veh), C12orf56 (ProbeSet 11735607_a_at) / Fold change (Aza/veh), FGFR1OP (ProbeSet 11751329_s_at) / Fold change (ACY-1035/veh), FGFR1OP (ProbeSet 11751329_s_at) / Fold change (Aza/veh), VPS36 (ProbeSet 11739960_a_at) / Fold change (ACY-1035/veh), VPS36 (ProbeSet 11739960_a_at) / RFU SYPL1 (11715823_x_at) / Fold change /veh SYPL1 (11715823_x_at) / RFU IGFBP7 (11715501_s_at) / Fold change /veh IGFBP7 (11715501_s_at) / RFU REEP3 (11722064_at) / Fold change /veh REEP3 (11722064_at) / RFU IGLL1 (11728026_x_at) / Fold change /veh IGLL1 (11728026_x_at): dose or concentration left out as unconfirmed
# Conditions: MV-4-11 cells, 48 hours
structure (smiles),measurement,value
Nc1ncn([C@@H]2O[C@H](CO)[C@@H](O)[C@H]2O)c(=O)n1 [azacitidine],Fold change /veh SRD5A1 (11742802_a_at),1.21
